Measurements from US20220056043A1, “NITROGEN-CONTAINING FUSED CYCLIC COMPOUND, PREPARATION METHOD THEREFOR AND USE THEREOF” (SICHUAN KELUN-BIOTECH BIOPHARMACEUTICAL CO., LTD., priority 2019, published 2022).

Assays:
hTLR7 = biological target: T1, hTLR7 (Homo sapiens, UniProt Q9NYK1); experiment: Agonistic effect on hTLR7, HEK-hTLR7-NF-κB-Luciferase reporter cells; type: cell-based; details: 16 hours
T1 construct: host or cells: HEK-hTLR7-NF-κB-Luciferase cells
T1 sequence (Q9NYK1 27-1049): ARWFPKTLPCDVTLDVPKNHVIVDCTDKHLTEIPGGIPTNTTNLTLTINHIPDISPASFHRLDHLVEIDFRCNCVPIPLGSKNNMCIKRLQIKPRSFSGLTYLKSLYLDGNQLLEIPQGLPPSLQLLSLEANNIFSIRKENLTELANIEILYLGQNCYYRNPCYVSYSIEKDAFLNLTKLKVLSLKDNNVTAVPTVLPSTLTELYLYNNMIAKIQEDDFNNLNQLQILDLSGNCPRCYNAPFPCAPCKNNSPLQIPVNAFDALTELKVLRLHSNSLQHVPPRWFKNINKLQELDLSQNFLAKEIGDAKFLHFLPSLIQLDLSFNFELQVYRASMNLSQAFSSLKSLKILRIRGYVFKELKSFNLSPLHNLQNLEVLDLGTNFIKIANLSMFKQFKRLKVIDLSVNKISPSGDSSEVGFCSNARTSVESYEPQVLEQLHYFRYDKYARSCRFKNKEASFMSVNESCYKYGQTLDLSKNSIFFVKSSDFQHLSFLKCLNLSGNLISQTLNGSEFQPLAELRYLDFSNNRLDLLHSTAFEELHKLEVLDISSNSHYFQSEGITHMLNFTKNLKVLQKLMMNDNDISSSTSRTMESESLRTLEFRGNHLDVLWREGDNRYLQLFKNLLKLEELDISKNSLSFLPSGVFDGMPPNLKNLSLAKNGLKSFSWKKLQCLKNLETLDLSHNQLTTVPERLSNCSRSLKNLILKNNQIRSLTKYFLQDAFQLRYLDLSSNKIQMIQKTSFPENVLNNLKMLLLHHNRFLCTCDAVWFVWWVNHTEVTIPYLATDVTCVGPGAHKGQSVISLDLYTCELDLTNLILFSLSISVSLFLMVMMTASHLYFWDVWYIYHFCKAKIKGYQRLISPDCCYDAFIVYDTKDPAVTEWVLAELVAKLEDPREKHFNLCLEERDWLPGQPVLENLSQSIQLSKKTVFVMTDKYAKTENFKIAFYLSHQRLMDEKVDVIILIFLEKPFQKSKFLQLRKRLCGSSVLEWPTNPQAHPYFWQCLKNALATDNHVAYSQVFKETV
Description: Experimental Example 3: Agonistic Effect of the Compound of the Invention on hTLR7
In this test, the luciferase in HEK-hTLR7-NF-κB-reporter cells was detected to test the activating effect of the compound of the invention on TLR7 signaling pathway, so as to evaluate the specificity of the agonistic effect of the compound on NLRP3 pathway.
Reagents: DMEM (High glucose); FBS (fetal bovine serum) (Gibco); Bright-Glo™ Luciferase detection kit (Promega)
Cells: HEK-hTLR7-NF-κB-Luciferase gene cells (human TLR7 NF-κB-luciferase reporter gene cells) (Nanjing Cobioer)
1) The HEK-hTLR7-NF-κB-Luciferase cells in a logarithmic growth phase were trypsinized and resuspended in the medium to a concentration of 2×10^6 cells/mL. 50 μL/well of the cell resuspension was added to a 96-well plate such that the number of cells in each well was […]. An appropriate amount of 10 mM DMSO solution of the compound to be tested was taken and diluted to a concentration of 2× test concentration with the medium. 50 μL/well was added to the cells in the 96-well plate, and the 96-well plate was incubated in an incubator at 37° C. and 5% CO2 for 16 hours. The medium was DMEM (High glucose) containing 10% FBS.
2) After the cell incubation, 100 μL/well of Bright-Glo™ Luciferase detection reagent was added, and the mixture was incubated at room temperature for 5 minutes. Relative luciferase activity unit (RLU) was read using a microplate reader.
3) The EC50 of effect of the tested compound to stimulate hTLR7 was fitted by the GraphPad software log(agonist) vs. response—Variable slope four-parameter method.

THP1-defNLRP3 cells = experiment: Agonistic effect on the expression of IL-1β in NLRP3 deficient THP1 cells (THP1-defNLRP3) after PMA-induced differentiation (HTRF); type: cell-based, human; details: Homo sapiens, THP-1; IL-1β level, PMA-differentiated NLRP3 deficient THP1 cells, 6 hours; highest test concentration 30 μM; read-out: hNLRP3 EC50 (μM) (THP-1defNLRP3)
Description: Experimental Example 2: Agonistic Effect of the Compound of the Invention on the Expression of IL-1β in NLRP3 Deficient THP1 Cells (THP1-defNLRP3 Cells) after PMA-Induced Differentiation
In this test, a HTRF detection method was used to test the effect of the compound of the invention on the level of IL-1β in THP1-defNLRP3 cells to evaluate the specificity of the agonistic effect of the compound on hNLRP3 inflammasome or hNLRP3 inflammasome pathway.
Reagents: as described in Experimental Example 1
Cell: THP1-defNLRP3 (InvivoGen)
Kit: IL-1β assay kit (CISBIO)
1) THP1-defNLRP3 cells in a logarithmic growth phase were seeded in a T75 culture flask at a density of 5×10^5 cells/well, and cultured in a cell incubator at 37° C., 5% CO2 for 24 hours, and then 1 μM PMA was used to induce THP1-defNLRP3 suspension cells to become adherent macrophages. The medium was RPMI 1640 containing 10% heat-inactivated FBS and 0.05 mM β-mercaptoethanol.
2) The cells were induced and cultured for 24 hours. Then the adherent cells were trypsinized and centrifuged at 1000 rpm for 5 min. The supernatant was removed, and the cells were resuspended to a density of 2×10^6 cells/mL in RPMI 1640 medium containing 2% heat-inactivated FBS. 50 μL/well of the cell resuspension was taken and spread on a 96-well plate such that the number of cells in each well was 1×10^5.
3) An appropriate amount of 10 mM DMSO solution of the compound to be tested was taken and diluted to a concentration of 2× test concentration with RPMI 1640 medium containing 2% heat-inactivated FBS. 50 μL/well of the dilution was added to the cells in the 96-well plate, and mixed well. The plate was incubated in a cell incubator at 37° C., 5% CO2 for 6 hours. The supernatant was collected, and the level of IL-1β was measured in accordance with the instructions of the IL-1β detection kit.
4) EC50 was fitted by the GraphPad software log(agonist) vs. response—Variable slope four-parameter method.

Compound | EC50 (hTLR7) [µM] | EC50 (THP1-defNLRP3 cells) [µM]
Nc1cc(N2CC3CC(C2)N3)c2sc(-c3ccn[nH]3)cc2n1 [Compound 176] | > 100 | > 30
Nc1cc(NCC2CC2)c2sc(-c3ccn[nH]3)cc2n1 [Compound 102, N^7-(cyclopropylmethyl)-2-(1H-pyrazol-5-yl)thieno[3,2-b]pyridine-5,7-diamine] | > 100 | > 30
Nc1cc(NCCCNC(=O)C2CC2)c2sc(-c3ccn[nH]3)cc2n1 [Compound 58] | > 100 | > 30
CC1(O)CCN(CCCNc2cc(N)nc3cc(-c4ccn[nH]4)sc23)CC1 [Compound 99, 1-(3-((5-amino-2-(1H-pyrazol-5-yl)thieno[3,2-b]pyridin-7-yl)amino)propyl)-4-methylpiperidine-4-ol] | > 100 | > 30
Cc1c(-c2cc[nH]n2)sc2c(NCCN3CCOCC3)cc(N)nc12 [Compound 153] | > 100 | > 30
C[C@H]1CN(c2cc(N)nc3cc(-c4ccn[nH]4)sc23)C[C@H](C)O1 [Compound 168] | > 100 | > 30
Nc1cc(NC2CCOC2)c2sc(-c3ccn[nH]3)cc2n1 (centres unmarked) [Compound 61, 2-(1H-pyrazol-5-yl)-N^7-(tetrahydrofuran-3-yl)thieno[3,2-b]pyridine-5,7-diamine] | > 100 | > 30
C[C@@H]1CN(CCNc2cc(N)nc3cc(-c4ccn[nH]4)sc23)C[C@H](C)O1 [Compound 117, N^7-(2-((2S,6R)-2,6-dimethylmorpholino)ethyl)-2-(1H-pyrazol-5-yl)thieno[3,2-b]pyridine-5,7-diamine] | > 100 | > 30
CN1CC[C@H](Nc2cc(N)nc3cc(-c4ccn[nH]4)sc23)C1 [Compound 51, (S)—N^7-(1-methylpyrrolidin-3-yl)-2-(1H-pyrazol-5-yl)thieno[3,2-b]pyridine-5,7-diamine] | > 100 | > 30
CS(=O)(=O)N1CCN(c2cc(N)nc3cc(-c4ccn[nH]4)sc23)CC1 [Compound 164] | > 100 | > 30
Cn1cnc(CNc2cc(N)nc3cc(-c4ccn[nH]4)sc23)c1 [Compound 63, N^7-(1-methyl-1H-imidazol-4-yl)methyl-2-(1H-pyrazol-5-yl)thieno[3,2-b]pyridine-5,7-diamine] | > 100 | > 30
CN(CCCNc1cc(N)nc2cc(-c3ccn[nH]3)sc12)C(=O)C1CC1 [Compound 76, N-(3-((5-amino-2-(1H-pyrazol-5-yl)thieno[3,2-b]pyridin-7-yl)amino)propyl)-N-methylcyclopropane formamide] | > 100 | > 30
CN1CCN(c2cc(N)nc3cc(-c4ccn[nH]4)sc23)CC1 [Compound 161] | > 100 | > 30
Nc1cc(NC2CC(O)C2)c2sc(-c3ccn[nH]3)cc2n1 (centres unmarked) [Compound 40, 3-((5-amino-2-(1H-pyrazol-5-yl)thieno[3,2-b]pyridin-7-yl)amino)cyclobutanol] | > 100 | > 30
Nc1cc(N2CCN(C3CCCC3)CC2)c2sc(-c3ccn[nH]3)cc2n1 [Compound 160] | > 100 | > 30
Nc1cc(N[C@@H]2CC[C@H](O)C2)c2sc(-c3ccn[nH]3)cc2n1 [Compound 31, (1S,3R)-3-((5-amino-2-(1H-pyrazol-5-yl)thieno[3,2-b]pyridin-7-yl)amino)cyclopentanol] | > 100 | > 30
Cn1cc(-c2cc3nc(N)cc(NCCCO)c3s2)cn1 [Compound 109, 3-((5-amino-2-(1-methyl-1H-pyrazol-4-yl)thieno[3,2-b]pyridin-7-yl)amino)-1-propanol] | > 100 | > 30

Results, then the compound that gave them:

EC50 (hTLR7) [µM] | EC50 (THP1-defNLRP3 cells) [µM] | Compound
> 100 | > 30 | Cn1ccc(CNc2cc(N)nc3cc(-c4ccn[nH]4)sc23)n1 [Compound 60, N^7-(1-methyl-1H-pyrazol-3-yl)methyl-2-(1H-pyrazol-5-yl)thieno[3,2-b]pyridine-5,7-diamine]
> 100 | > 30 | CN1CCC[C@@H](Nc2cc(N)nc3cc(-c4ccn[nH]4)sc23)C1 [Compound 104, (R)—N^7-(1-methylpiperidin-3-yl)-2-(1H-pyrazol-5-yl)thieno[3,2-b]pyridine-5,7-diamine]
> 100 | > 30 | C[C@@H]1COCCN1c1cc(N)nc2cc(-c3ccn[nH]3)sc12 [Compound 177]
> 100 | > 30 | CCC(CC)Nc1cc(N)nc2cc(-c3ccn[nH]3)sc12 [Compound 113, N^7-(pent-3-yl)-2-(1H-pyrazol-5-yl)thieno[3,2-b]pyridine-5,7-diamine]
> 100 | > 30 | CC(CO)(CO)CNc1cc(N)nc2cc(-c3ccn[nH]3)sc12 [Compound 122]
> 100 | > 30 | Nc1cc(N2CC[C@@H](O)C2)c2sc(-c3ccn[nH]3)cc2n1 [Compound 181]
> 100 | > 30 | Nc1cc(NCCCO)c2sc(-c3ccccc3)cc2n1 [Compound 93, 3-((5-amino-2-phenylthieno[3,2-b]pyridin-7-yl)amino)-1-propanol]
> 100 | > 30 | CC(C)N1CCN(c2cc(N)nc3cc(-c4ccn[nH]4)sc23)CC1 [Compound 162]
> 100 | > 30 | CC[C@H](CO)Nc1cc(N)nc2cc(-c3ccn[nH]3)sc12 [Compound 95, (R)-2-((5-amino-2-(1H-pyrazol-5-yl)thieno[3,2-b]pyridin-7-yl)amino)butanol]
> 100 | > 30 | Nc1cc(NCc2ccccn2)c2sc(-c3ccn[nH]3)cc2n1 [Compound 59, 2-(1H-pyrazol-5-yl)-N^7-(pyridin-2-ylmethyl)thieno[3,2-b]pyridine-5,7-diamine]
> 100 | > 30 | Nc1cc(NCCCO)c2sc(-c3ccncc3)cc2n1 [Compound 90, 3-((5-amino-2-(pyridin-4-yl)thieno[3,2-b]pyridin-7-yl)amino)-1-propanol]
